Reference: patent US12534478B2, “Prevention, prophylactic and therapeutic treatment of autoimmune diseases including multiple sclerosis using novel small molecules and compositions thereof” (University of Sharjah, priority 2020, dated 2026)
Entries after “also recorded” stand apart in the source; their conditions may differ.

Assays:
[1] = system: experimental autoimmune encephalomyelitis (EAE) model; experiment: EAE clinical score in PLP-induced EAE mice; type: in vivo, SJL/J female mice; details: for clinical score severity and clinical features (therapeutic effect in EAE mice model): regimen not specified
Protocol: The basic experimental approaches to test the efficacy of the compounds in the EAE model were done using the methodologies developed in our laboratory. EAE disease was induced in 4-6 weeks SJL female mice using 200 μg PLP peptide emulsified in complete Freund's adjuvant (CFA) containing 1 mg heat-killed Mycobacterium tuberculosis, injected at four sites in the right and left flanks. Following each injection, 200 ng of Bordetella pertussis toxin PTX) was injected intraperitoneal (IP) on days 0 and 2 post PLP immunization. The mice were divided into several groups: 1. prevention, where they were treated with 50 μg/mouse of SIMR1281 or SIMR1707 starting 15 days before the induction of EAE and continued […]. 2. Prophylactic, mice were treated with 50 μg/moues of SIMR1281 or SIMR1707 starting from day of EAE induction and continued every three days until termination (usually between 40-45 days). 3. Therapeutic, where mice were treated with 50 μg of SIMR1281 or SIMR1707 from the days of disease development (usually between 8-10 post EAE induction), and continued every three days until termination. The procedure for these regimens is shown below: • A. Prophylactic regimen: Mice were injected IP with 50 μg/mouse every 3 days since the initiation of the disease and until termination.
[drawing 3] • B. Therapeutic regimen: Mice were injected IP with 50 μg/mouse every 3 days at the appearance of symptoms (usually […]) days after initiation of the disease and until termination.
[drawing 4] • C. Prevention: The mice were injected IP with 50 μg/mouse of SIMR 1707 or 1281 at days −15, −10, −5, and 0. EAE was induced at day 0.
(§1) Untreated mice or mice injected with DMSO as a vehicle were used. For positive group, the results regarding the effects of RTX were used. During the course of the EAE disease, the animals were independently observed and monitored daily, and the EAE clinical score was recorded according to the following scoring scheme: 0=no clinical disease, 1=tail flaccidity, 2=hind limb weakness, 3=hind limb paralysis, 4=forelimb paralysis, and 5=moribund or death. The body weight changes were also monitored for all the mice groups. After the termination of the experiment, the mice were sacrificed, and their brains were collected for histological and immunohistochemistry analysis.

[2] = Body weight of EAE mice during treatment; type: in vivo; details: prophylactic, therapeutic or prevention regimen, measured every day up to 45 days (FIG. 5)
Protocol: as §1
(§2) FIG. 5 illustrates the weights of mice measured every day through the course of the experiments, i.e. up to 45 days after the initiation of the disease. FIGS. 5A, 5B and 5C, show the weights of mice after prophylactic, therapeutic or prevention regimen, respectively. Significant values shown in the right panels compared the mice body weights among the various groups. To corroborate the results of clinical scores with histological evaluation, we performed immunohistochemistry analysis to evaluate the effects of the two drugs on the inflammation taking place in the brain. First, we stained the brain cerebellum of these mice with H&E to evaluate the degree of inflammation.

[3] = system: perivascular inflammatory infiltrates in cerebellum; experiment: H&E staining of brain cerebellum (degree of inflammation); type: in vivo, SJL/J female mice; details: 50 μg/mouse IP (FIG. 6)
Protocol: as §1, §2

[4] = system: CD3^+ T lymphocyte infiltration into the cerebellum; experiment: Anti-CD3 staining of cerebellum; type: in vivo, SJL/J female mice; details: 50 μg/mouse IP (FIG. 7)
Protocol: as §1
FIG. 6 illustrates H&E staining of mice cerebellum (rectangles) showing highly inflamed lesions in EAE untreated and vehicle treated mice (arrows). […] Further, infiltration of CD3 cells into the mice cerebellum stained with anti-CD3 was performed.

[5] = system: GFAP; experiment: GFAP staining of cerebellum (glial cell activation, gliosis); type: in vivo, SJL/J female mice; details: 50 μg/mouse IP (FIG. 8)
Protocol: as §1
FIG. 7 illustrates infiltration of CD3^+ lymphocytes into the cerebellum of mice brains (rectangles or squares). […] To further investigate the effects of the drugs on brain inflammation, we examined the activation of glial cells by staining with GFAP which determines the degree of gliosis.

[6] = system: demyelination in the cerebellum; experiment: Luxol fast blue staining of cerebellum (demyelination / re-myelination); type: in vivo, SJL/J female mice; details: 50 μg/mouse IP (FIG. 9)
Protocol: as §1
FIG. 8 illustrates mouse brain cerebellum (rectangles or squares) was stained with GFAP to determine the degree of glial cell activation. […] Finally, we stained the mice brain cerebellum with Luxol fast blue to determine the degree of re-myelination after treatment with the two drugs.

[7] = prevention regimen, 50 μg/mouse IP on days −15, −10, −5 and 0, EAE induced at day 0, vs vehicle or untreated (FIG. 3C)
[8] = prophylactic regimen, 50 μg/mouse IP every 3 days from EAE induction until termination, vs vehicle or untreated (FIG. 3A)
[9] = therapeutic regimen, 50 μg/mouse IP every 3 days from appearance of symptoms until termination, vs vehicle or untreated (FIG. 3B)

| Compound | clinical score severity and clinical features (therapeutic effect in EAE mice model) [1] | EAE clinical scores [1, 7] | EAE clinical scores [1, 8] | EAE clinical scores [1, 9] | body weight [2] | inflammation, perivascular inflammatory infiltrates (H&E) ([3]; prevention regimen) | inflammation, perivascular inflammatory infiltrates (H&E) ([3]; prophylactic regimen) | inflammation, perivascular inflammatory infiltrates (H&E) ([3]; therapeutic regimen) | CD3^+ T lymphocyte infiltration ([4]; prevention regimen) | CD3^+ T lymphocyte infiltration ([4]; prophylactic regimen) | CD3^+ T lymphocyte infiltration ([4]; therapeutic regimen) | GFAP expression / gliosis ([5]; prevention regimen) | GFAP expression / gliosis ([5]; prophylactic regimen) | GFAP expression / gliosis ([5]; therapeutic regimen) | demyelination / re-myelination (Luxol fast blue) ([6]; prevention regimen) | demyelination / re-myelination (Luxol fast blue) ([6]; prophylactic regimen) | demyelination / re-myelination (Luxol fast blue) ([6]; therapeutic regimen) | EAE clinical scores ([1]; RTX as prophylactic drug, IP from day 0 every three days until termination (FIG. 4A)) | EAE clinical scores ([1]; RTX as therapeutic drug, 5 μg/mouse IP from first sign of disease every three days until termination (FIG. 4B)) | EAE clinical scores ([1]; RTX prevention regimen, IP on days −15, −10, −5 and 0, particularly at high concentration, 20 μg/mouse (FIG. 4C)) |
| --- | --- | --- | --- | --- | --- | --- | --- | --- | --- | --- | --- | --- | --- | --- | --- | --- | --- | --- | --- | --- |
| CC1(C)[C@H]2COc3ccc4ccccc4c3[C@H]2N=C2SC(c3ccccc3)=C(c3ccccc3)N21 [SIMR-1281, (8aS,14aS)-9,9-dimethyl-11,12-diphenyl-8a,14a-dihydro-8H,9H-benzo[5,6]chromeno[4,3-d]thiazolo[3,2-a]pyrimidine] | significant reduction | significant decrease | significant decrease | significant decrease | significantly increased the weights | no evidence of any perivascular inflammatory infiltrates; also recorded: no inflammation | no evidence of any perivascular inflammatory infiltrates; also recorded: no inflammation | no evidence of any perivascular inflammatory infiltrates; also recorded: no inflammation | no evidence of CD3^+ T lymphocyte infiltration; also recorded: no CD3^+ T cell accumulation | no evidence of CD3^+ T lymphocyte infiltration; also recorded: no CD3^+ T cell accumulation | no evidence of CD3^+ T lymphocyte infiltration; also recorded: no CD3^+ T cell accumulation | significant reduction; also recorded: so robust in preventing gliosis | significant reduction; also recorded: so robust in preventing gliosis | significant reduction; also recorded: so robust in preventing gliosis | no evidence of demyelination | no evidence of demyelination | no evidence of demyelination | – | – | – |
| C[C@]12CCC(=O)C[C@H]1N1CCc3c([nH]c4ccccc34)[C@@H]1CO2 [SIMR-1707] | significant reduction | not when used in the prevention regimen | effective | effective | significantly increased the weights | minimal evidence of perivascular inflammatory infiltrates; also recorded: less inflammation | minimal evidence of perivascular inflammatory infiltrates; also recorded: less inflammation | no evidence of perivascular inflammatory infiltrates; also recorded: completely disappeared | less infiltration of CD3^+ T cells | partially reduce; also recorded: less infiltration of CD3^+ T cells | no evidence of any CD3^+ T lymphocyte infiltration; also recorded: completely disappeared | only partial reduction; also recorded: Less gliosis | significant reduction; also recorded: no obvious glial cells activation | significant reduction; also recorded: no obvious glial cells activation | partial improvement in re-myelination; also recorded: partial improvement in demyelination | partial improvement in re-myelination; also recorded: partial improvement in demyelination | significant reduction in the demyelination areas | – | – | – |
| Rituximab [RTX, reference compound] | – | – | – | – | – | – | – | – | – | – | – | – | – | – | – | – | – | did not exert significant differences | did not exert significant differences | only worked in the prevention regimen |
